Series [1] has as its system HBV viral load in AD38 cells. The series is described as follows: Viral load production in AD38 cells, quantitative PCR of the core sequence in supernatant. It counts as cell-based. The settings on record: Hepatitis B virus, 144 h, 10 μM compound, 6 days at 37° C., supernatant qPCR, relative to DMSO control; read-out: AD38 Viral Load (%) (VL with cmpd/VL in DMSO control) at 10 μM. For orientation: Real-time PCR tracks product formation cycle by cycle.

The test system of another series is AD38 cells. The series is described as follows: Viability of AD38 cells (Promega CellTiter-Glo). It counts as cell-based. The settings on record: 10 μM compound, 6 days, CellTiter-Glo luminescence normalized to DMSO control (100%). A digest of the protocol: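 After 6 days of compound exposure at 37° C (compound added as 10× solution in 10% DMSO; 50,000 cells/well, collagen-coated), medium was replaced with tetracycline-free DMEM/F12, 2% FBS, 1% DMSO. CellTiter-Glo luminescence was then recorded and normalized to DMSO-treated wells as 100% viability.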

Consider `Cl.NCc1ccc(-c2ncc(CNC(=O)c3ccc4c(c3)NC(=O)c3ccccc3S4(=O)=O)s2)cc1` [compound 1654, N-((2-(4-(aminomethyl)phenyl)thiazol-5-yl)methyl)-11-oxo-10, 11-dihydrodibenzo [b, f] [1, 4] thiazepine-8-carboxamide 5,5-dioxide hydrochloride], for which, in series [1], the activity at 10 µM is 0.5%. In addition, in the series on AD38 cells, the “AD38 Viability Normalized Result (cmpd/DMSO %) at 10 μM” value is reported as 94%.
In the same order, the values of `CN(C)CCOc1ncc(CN(C)C(=O)c2ccc3c(c2)NC(=O)c2ccccc2S3(=O)=O)s1` [compound 1660, N-((2-(2-(dimethylamino)ethoxy)thiazol-5-yl)methyl)-N-methyl-11-oxo-10, 11-dihydrodibenzo [b, f] [1, 4] thiazepine-8-carboxamide 5,5-dioxide] are 86.8% and 102%.
In the same order, the values of `CN(Cc1cnc(-c2ccc(O)cc2)s1)C(=O)c1ccc2c(c1)NC(=O)c1ccccc1S2(=O)=O` [compound 1661] are 45.2% and 90%.
In the same order, the values of `O=C(NCc1cnc(-c2ccc(O)c(F)c2)s1)c1ccc2c(c1)NC(=O)c1ccccc1S2(=O)=O` [compound 1664] are 0.6% and 99%.
With `O=C(NCc1cnc(-c2cc(F)c(O)c(F)c2)s1)c1ccc2c(c1)NC(=O)c1ccccc1S2(=O)=O` [compound 1665], the activity at 10 µM in series [1] was 2.7%. Besides, in the series on AD38 cells, the “AD38 Viability Normalized Result (cmpd/DMSO %) at 10 μM” value was determined as 90%.
On to `COc1ccc(-c2ncc(CNC(=O)c3ccc4c(c3)NC(=O)c3ccccc3S4(=O)=O)s2)cn1` [compound 1666, N-((2-(6-methoxypyridin-3-yl)thiazol-5-yl)methyl)-11-oxo-10, 11-dihydrodibenzo [b, f] [1, 4] thiazepine-8-carboxamide 5,5-dioxide], for which, in series [1], the activity at 10 µM was determined as 0.9%. Besides, in the series on AD38 cells, the “AD38 Viability Normalized Result (cmpd/DMSO %) at 10 μM” value amounted to 98%.
The corresponding values for `O=C(NCc1cnc(-c2ccc(O)c(Cl)c2)s1)c1ccc2c(c1)NC(=O)c1ccccc1S2(=O)=O` [compound 1667] are 0.5% and 93%.
The corresponding values for `O=C(NCc1cnc(-c2ccc(O)cc2Cl)s1)c1ccc2c(c1)NC(=O)c1ccccc1S2(=O)=O` [compound 1668] are 23.4% and 106%.
Regarding `O=C(NCc1cnc(-c2ccc(O)nc2)s1)c1ccc2c(c1)NC(=O)c1ccccc1S2(=O)=O` [compound 1669, N-((2-(6-hydroxypyridin-3-yl)thiazol-5-yl)methyl)-11-oxo-10, 11-dihydrodibenzo [b, f] [1, 4] thiazepine-8-carboxamide 5,5-dioxide], the activity at 10 µM in series [1] is 13.1%. Moreover, the “AD38 Viability Normalized Result (cmpd/DMSO %) at 10 μM” value in the series with AD38 cells was found to be 104%.
In the same order, the values of `O=C(NCc1cnc(-c2ccc(O)cc2F)s1)c1ccc2c(c1)NC(=O)c1ccccc1S2(=O)=O` [compound 1670] are 0.9% and 102%.
In the same order, the values of `O=C(NCc1cnc(-c2cnc(O)nc2)s1)c1ccc2c(c1)NC(=O)c1ccccc1S2(=O)=O` [compound 1671, N-((2-(2-hydroxypyrimidin-5-yl)thiazol-5-yl)methyl)-11-oxo-10, 11-dihydrodibenzo [b, f] [1, 4] thiazepine-8-carboxamide 5,5-dioxide] are 18.2% and 100%.
The corresponding values for `Nc1ccc(-c2ncc(CNC(=O)c3ccc4c(c3)NC(=O)c3ccccc3S4(=O)=O)s2)cn1` [compound 1672] are 0.6% and 101%.
In the case of `Nc1ncc(-c2ncc(CNC(=O)c3ccc4c(c3)NC(=O)c3ccccc3S4(=O)=O)s2)cn1` [compound 1673], in series [1], the activity at 10 µM was 3.2%. For the same compound, in the series with AD38 cells, the “AD38 Viability Normalized Result (cmpd/DMSO %) at 10 μM” value came to 105%.
In the same order, the values of `CN(C)c1ccc(-c2ncc(CNC(=O)c3ccc4c(c3)NC(=O)c3ccccc3S4(=O)=O)s2)cn1` [compound 1674] are 0.3% and 121%.
Regarding `CN(C)c1ncc(-c2ncc(CNC(=O)c3ccc4c(c3)NC(=O)c3ccccc3S4(=O)=O)s2)cn1` [compound 1675], the activity at 10 µM in series [1] came to 2.3%. In the series on AD38 cells, the “AD38 Viability Normalized Result (cmpd/DMSO %) at 10 μM” value was 115%.
Regarding `CN(C)CCCOc1ccc(-c2ncc(CNC(=O)c3ccc4c(c3)NC(=O)c3ccccc3S4(=O)=O)s2)cc1` [compound 1679], in series [1], the activity at 10 µM was 1.1%. Also, the “AD38 Viability Normalized Result (cmpd/DMSO %) at 10 μM” value with AD38 cells turned out to be 94%.
The corresponding values for `CN(C)CCCOc1ncc(CNC(=O)c2ccc3c(c2)NC(=O)c2ccccc2S3(=O)=O)s1` [compound 1680, N-((2-(3-(dimethylamino)propoxy)thiazol-5-yl)methyl)-11-oxo-10, 11-dihydrodibenzo [b, f] [1, 4] thiazepine-8-carboxamide 5,5-dioxide] are 15% and 94%.
The corresponding values for `CN(C)CCOc1ncc(CN(C)C(=O)c2ccc3c(c2)NC(=O)c2ccccc2O3)s1` [compound 1686, N-((2-(2-(dimethylamino)ethoxy)thiazol-5-yl)methyl)-N-methyl-11-oxo-10, 11-dihydrodibenzo [b, f] [1, 4] oxazepine-8-carboxamide] are 58.4% and 102%.
The corresponding values for `CN(C)CCCOc1ncc(CN(C)C(=O)c2ccc3c(c2)NC(=O)c2ccccc2O3)s1` [compound 1687, N-((2-(3-(dimethylamino)propoxy)thiazol-5-yl)methyl)-N-methyl-11-oxo-10, 11-dihydrodibenzo [b, f] [1, 4] oxazepine-8-carboxamide] are 49.2% and 102%.
On to `CN(C)CCCOc1ncc(CNC(=O)c2ccc3c(c2)NC(=O)c2ccccc2O3)s1` [compound 1691, N-((2-(3-(dimethylamino)propoxy)thiazol-5-yl)methyl)-11-oxo-10, 11-dihydrodibenzo [b, f] [1, 4] oxazepine-8-carboxamide], for which the activity at 10 µM in series [1] was found to be 77.1%. Moreover, the “AD38 Viability Normalized Result (cmpd/DMSO %) at 10 μM” value in the series on AD38 cells is listed as 89%.
`CN1CCN(c2ncc(CNC(=O)c3ccc4c(c3)NC(=O)c3ccccc3O4)s2)CC1` [compound 1694]: the activity at 10 µM in series [1] stood at 61.1%. Further, the “AD38 Viability Normalized Result (cmpd/DMSO %) at 10 μM” value in the series with AD38 cells turned out to be 91%.
With `O=C(NCc1cnc(-c2ccc3[nH]cnc3c2)s1)c1ccc2c(c1)NC(=O)c1ccccc1O2` [compound 1695], the activity at 10 µM in series [1] was found to be 22.9%. Besides, the “AD38 Viability Normalized Result (cmpd/DMSO %) at 10 μM” value with AD38 cells came out at 102%.
In the same order, the values of `O=C(NCc1cnc(-c2ccc3[nH]ccc3c2)s1)c1ccc2c(c1)NC(=O)c1ccccc1O2` [compound 1696] are 0.8% and 109%.
`CN(C)c1ccc(-c2ncc(CNC(=O)c3ccc4c(c3)NC(=O)c3ccccc3O4)s2)cc1` [compound 1697]: the activity at 10 µM in series [1] was 5.5%. Also, the “AD38 Viability Normalized Result (cmpd/DMSO %) at 10 μM” value with AD38 cells amounted to 90%.
The corresponding values for `CN(C)CCCOc1ccc(-c2ncc(CNC(=O)c3ccc4c(c3)NC(=O)c3ccccc3O4)s2)cc1` [compound 1698] are 2.7% and 91%.

Values taken from US11814376B2, “Hepatitis b core protein modulators” (Assembly Biosciences, Inc., priority 2015, dated 2023).
